The structures appear in SMILES notation. Where “and” joins values, the source holds several entries; their conditions need not be identical. Identical values can stand only once.

These results are taken from patent US20050004193A1, “Pharmaceutical combination for the prevention or treatment of cardiovascular, cardiopulmonary, pulmonary, or renal diseases” (Boehringer Ingelheim International GmbH, priority 2003, published 2005).

For series [1], the target named is T1, human PPARgamma-ligand binding domain (LBD) (Homo sapiens, UniProt P37231).
T1 sequence (P37231 205-505): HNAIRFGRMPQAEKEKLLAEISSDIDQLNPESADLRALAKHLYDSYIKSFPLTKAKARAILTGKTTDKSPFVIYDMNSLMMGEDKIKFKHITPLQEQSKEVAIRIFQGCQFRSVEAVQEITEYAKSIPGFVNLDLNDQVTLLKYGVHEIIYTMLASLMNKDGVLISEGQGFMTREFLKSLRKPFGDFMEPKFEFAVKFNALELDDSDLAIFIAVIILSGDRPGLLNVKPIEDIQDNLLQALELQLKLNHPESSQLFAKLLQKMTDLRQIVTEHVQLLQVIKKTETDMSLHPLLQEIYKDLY
T1 sequence (P19793 220-461 partner limits assumed): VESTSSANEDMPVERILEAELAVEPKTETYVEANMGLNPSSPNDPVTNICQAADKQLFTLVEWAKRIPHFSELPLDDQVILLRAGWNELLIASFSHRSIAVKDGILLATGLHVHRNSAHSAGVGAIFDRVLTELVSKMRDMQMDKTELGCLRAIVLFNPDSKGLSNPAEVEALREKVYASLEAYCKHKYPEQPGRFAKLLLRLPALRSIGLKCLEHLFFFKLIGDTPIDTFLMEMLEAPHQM
The series is described as follows: SPA assay: displacement of 3H-labeled rosiglitazone from PPARgamma-LBD. Particulars: for MW (SPA signal, bound 3H-rosiglitazone): NSB 217, Bmax 911; for displacement of the radioactive rosiglitazone from the binding pocket: very large excesses of test substance. On the procedure: Protein containing the human PPARgamma-ligand binding domain (LBD) is prepared as a GST fusion protein in E. coli and purified by affinity chromatography. To do this, a DNA section which codes for the amino acids 205-505 of the human PPARgamma2 transcription factor (cf. Genbank entry U79012) is subcloned via the additionally inserted restriction cutting sites BamH I and Xho I into the expression vector pGEX4T-I (Amersham) and the sequence of the section is monitored. […] The bacteria are pelleted after the induction and frozen in batches in PBS, pH 7.4. After opening up in a French Press, the dissolved GST-PPARgamma-LBD-fusion protein is purified using a GSTrap column (Pharmacia). Elution is carried out by the addition of 20 mM reduced glutathione. The GST-PPARgamma-LBD-protein fractions are desalinated using a HiTrap desalting column (Pharmacia) and the protein concentration is determined using a standard assay. Protein containing the human RXRalpha ligand binding domain (LBD) is prepared as a His tag fusion protein in E. coli and purified by affinity chromatography. To do this, a DNA section which codes for the amino acids 220-461 of the human RXRalpha transcription factor (cf. Genbank entry NM_002957, nt 729-1457) is subcloned via the additionally introduced restriction cutting sites BamH I and Not I into the expression vector pET28c (Novagen) and the sequence of the section is monitored. The fusion protein is expressed in the E. […] The bacteria are pelleted after the expression and frozen in batches in PBS, pH 7.4. After opening up in a French Press, the dissolved His-RXRalpha-LBD-fusion protein is purified using a HiTrap chelating column (Pharmacia). Elution is carried out using a 500 mM imidazole step. The His-RXRalpha-LBD protein fractions are desalinated using a HiTrap desalting column (Pharmacia) and the protein concentration is determined using a standard assay. A description of the SPA assay format can be found in R. Mukherjee et al., J Steroid Biochem Mol Biol (2002) 81:217-225.
On the technique in general: Displacement assays read how much labelled ligand stays bound in the presence of the test substance.

Series [2] concerns the target T2, human PPARgamma-ligand binding domain (LBD) (Homo sapiens, UniProt P37231).
T2 construct: codes for the amino acids 205-505 of the human PPARgamma2 transcription factor; made in house; host or cells: E. coli BL21(DE3), vector pGEX4T-1
T2 sequence (P37231 205-505): T1 sequence (P37231 205-505)
The series is described as follows: AlphaScreen: recruiting of CBP LXXLL peptide by GST-PPARgamma-LBD. In kind it is biochemical. Conditions: for direct activation of the PPARgamma-LBD / recruiting of the LXXLL peptide: concentrations of up to 50 μM. On the procedure:
Protein containing the human PPARgamma-ligand binding domain (LBD) is prepared as a GST fusion protein in E. coli and purified by affinity chromatography. […] The fusion protein is expressed in the E. coli strain BL21(DE3) recommended for pGEX vectors after induction with 0.2 mM IPTG for 4 hours at 25° C. The bacteria are pelleted after the induction and frozen in batches in PBS, pH 7.4. After opening up in a French Press, the dissolved GST-PPARgamma-LBD-fusion protein is purified using a GSTrap column (Pharmacia). Elution is carried out by the addition of 20 mM reduced glutathione. The GST-PPARgamma-LBD-protein fractions are desalinated using a HiTrap desalting column (Pharmacia) and the protein concentration is determined using a standard assay.
The assay buffer consists of 25 mM Hepes pH7.4, 100 mM NaCl, 1 mM DTT, 0.1% Tween-20, and 0.1% BSA. […] The final DMSO concentration in the assay is 1% (v/v). A 1% DMSO solution is used as the background control (NSB). The measurement is done using a Packard fusion measuring device.
For orientation: Bead proximity is the source of the signal in Alpha formats.

For series [3], the target named is T3, fusion protein of ligand binding domain of human PPARgamma2 transcription factor and yeast GAL4 DNA binding domain (Homo sapiens, UniProt P37231).
T3 construct: codes for amino acids 205-505 of the human PPARgamma2 transcription factor; expressed in transfected cells
T3 sequence (P37231 205-505): T1 sequence (P37231 205-505)
The series is described as follows: Luciferase activity in stably transformed PPARgamma reporter cell line (CHO-K1 clone 11). In kind it is cell-based.
Procedure: After 24 hours, the medium is changed for one without any added G418. The test substances are brought to 100 times the desired concentration with a suitable solvent, e.g., DMSO, and diluted 1:100 with the medium placed in the cell culture plate. The solvent used, e.g., DMSO, is used as the background control in the same concentration. […] Luminescence is measured after a five minute wait using a Packard TopCount NXT. The luciferase activity is obtained by integrating the relative luciferase units (RLU) of the first ten seconds after the start of measurement.

The nature of series [4]: Dissolution of active substances from Tablet 3. In kind it is physicochemical. Conditions: Tablet 3, three batches. From the text:
This combination of active substances and excipients is then compressed with a suitable tablet press (e.g., Korsch EKO or Fette P1200) to form tablets. […]

For the molecule `CCCCC1=NC2(CCCC2)C(=O)N1Cc1ccc(-c2ccccc2-c2nnn[nH]2)cc1` [Irbesartan], the entries for the “MW (SPA signal, bound 3H-rosiglitazone)” value in series [1] (conc. 1.00E-04 M) and in series [1] (conc. 3.00E-07 M) were 510 and 810, respectively. Further, the “displacement of the radioactive rosiglitazone from the binding pocket” value (from here on “displacement”) in series [1] is listed as “no concentration-dependent displacement of the radioactive rosiglitazone”. For the same molecule, the “direct activation of the PPARgamma-LBD / recruiting of the LXXLL peptide” value in series [2] is recorded as “does not result in any direct activation of the PPARgamma-LBD”.
On to `CCCCc1nc(Cl)c(CO)n1Cc1ccc(-c2ccccc2-c2nn[nH]n2)cc1` [Losartan], for which the “displacement” value in series [1] is “no concentration-dependent displacement of the radioactive rosiglitazone”. Also, the “direct activation of the PPARgamma-LBD / recruiting of the LXXLL peptide” value in series [2] is listed as “does not result in any direct activation of the PPARgamma-LBD”.
With `CCCc1nc2c(C)cc(-c3nc4ccccc4n3C)cc2n1Cc1ccc(-c2ccccc2C(=O)O)cc1` [Telmisartan, 4′-[2-n-propyl-4-methyl-6-(1-methylbenzimidazol-2-yl)benzimidazol-1-ylmethyl]biphenyl-2-carboxylic acid], in series [3], the “activation of the PPARgamma pathway in the PPARgamma reporter cell line” value was “particularly potent activation of the PPARgamma pathway”. In series [3] (conc. 3.00E-07 M, 24 hours), the “MW (luciferase activity)” value was 760 RLU. Moreover, the “displacement” value in series [1] is reported as “no concentration-dependent displacement of the radioactive rosiglitazone”. Further, the “MW (AlphaScreen signal)” value in series [2] (conc. 3.00E-06 M) is reported as 720. Also, in series [2], the “direct activation of the PPARgamma-LBD / recruiting of the LXXLL peptide” value was “does not result in any direct activation of the PPARgamma-LBD”.
Take `NS(=O)(=O)c1cc2c(cc1Cl)NCNS2(=O)=O` [hydrochlorothiazide]: the “dissolution of hydrochlorothiazide from tablets” value in series [4] (900 mL of 0.1 M HCl, 100 rpm, 30 minutes) is 69±6.3% and 72±2.1% and 78±1.8%.
Turning to `CCCc1nc2c(C)cc(-c3nc4ccccc4n3C)cc2n1Cc1ccc(-c2ccccc2C(=O)[O-])cc1.[Na+]` [telmisartan sodium salt], the “dissolution of telmisartan sodium salt from tablets” value in series [4] (900 mL of 0.1 M phosphate buffer, pH 7.5, 30 minutes stirring, 75 rpm) was 92±1.5% and 96±1.8% and 100±1.0%.
